Test results taken from PMC7782793, “Hydroxamic acid-modified peptide microarrays for profiling isozyme-selective interactions and inhibition of histone deacetylases” (Nature Communications, 2021).
Several values for one entry are separate records, joined by “and”; a condition that tells them apart may be missing. Equal values may be shown once. Marks after values point to notes of the source that are not given here. Non-standard residues stand in square brackets, D forms with d. Residues, ends and D or L forms follow the SMILES beside them. *: point of attachment. Asu = N[C@@H](CCCCCC(=O)O)C(=O)O; NHOH = ON*

Key:
[1] = biological target: T1, HDAC3/NCoR2 (Homo sapiens, UniProt O15379); assay: HDAC inhibition assay (fluorogenic, Ac-Leu-Gly-Lys(Ac)-AMC); type: biochemical; details: for HDAC3 dose-response data (relative enzyme activity), Fig. 6 + S. Fig. 10: duplicate columns
T1 construct: HDAC3/NCoR2 (full length, C-terminal His tag, NCoR2 N-terminal GST tag); purchased BPS Bioscience 50003
T1 sequence (O15379 whole entry): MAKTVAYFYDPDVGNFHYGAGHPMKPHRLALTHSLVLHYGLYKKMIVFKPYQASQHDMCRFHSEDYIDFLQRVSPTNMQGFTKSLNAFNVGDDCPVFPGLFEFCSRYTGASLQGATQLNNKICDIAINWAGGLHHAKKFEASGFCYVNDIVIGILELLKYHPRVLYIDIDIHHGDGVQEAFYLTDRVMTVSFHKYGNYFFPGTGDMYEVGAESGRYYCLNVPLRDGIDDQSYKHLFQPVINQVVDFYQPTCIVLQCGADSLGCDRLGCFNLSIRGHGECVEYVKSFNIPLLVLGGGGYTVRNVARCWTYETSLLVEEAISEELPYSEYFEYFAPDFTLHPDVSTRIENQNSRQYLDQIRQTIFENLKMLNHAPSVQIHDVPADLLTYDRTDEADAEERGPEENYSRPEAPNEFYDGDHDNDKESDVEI
T1 sequence (Q9Y618 389-480 partner limits assumed): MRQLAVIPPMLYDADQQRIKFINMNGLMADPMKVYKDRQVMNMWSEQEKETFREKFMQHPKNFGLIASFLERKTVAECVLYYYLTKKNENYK

[2] = biological target: T2, HDAC6 (Homo sapiens, UniProt Q9UBN7); assay: as above; type: biochemical; details: HDAC6, replicates
T2 construct: HDAC6 (full length, BPS Bioscience, cat. #: 50056); purchased BPS Bioscience 50056
T2 sequence (Q9UBN7 1-1215): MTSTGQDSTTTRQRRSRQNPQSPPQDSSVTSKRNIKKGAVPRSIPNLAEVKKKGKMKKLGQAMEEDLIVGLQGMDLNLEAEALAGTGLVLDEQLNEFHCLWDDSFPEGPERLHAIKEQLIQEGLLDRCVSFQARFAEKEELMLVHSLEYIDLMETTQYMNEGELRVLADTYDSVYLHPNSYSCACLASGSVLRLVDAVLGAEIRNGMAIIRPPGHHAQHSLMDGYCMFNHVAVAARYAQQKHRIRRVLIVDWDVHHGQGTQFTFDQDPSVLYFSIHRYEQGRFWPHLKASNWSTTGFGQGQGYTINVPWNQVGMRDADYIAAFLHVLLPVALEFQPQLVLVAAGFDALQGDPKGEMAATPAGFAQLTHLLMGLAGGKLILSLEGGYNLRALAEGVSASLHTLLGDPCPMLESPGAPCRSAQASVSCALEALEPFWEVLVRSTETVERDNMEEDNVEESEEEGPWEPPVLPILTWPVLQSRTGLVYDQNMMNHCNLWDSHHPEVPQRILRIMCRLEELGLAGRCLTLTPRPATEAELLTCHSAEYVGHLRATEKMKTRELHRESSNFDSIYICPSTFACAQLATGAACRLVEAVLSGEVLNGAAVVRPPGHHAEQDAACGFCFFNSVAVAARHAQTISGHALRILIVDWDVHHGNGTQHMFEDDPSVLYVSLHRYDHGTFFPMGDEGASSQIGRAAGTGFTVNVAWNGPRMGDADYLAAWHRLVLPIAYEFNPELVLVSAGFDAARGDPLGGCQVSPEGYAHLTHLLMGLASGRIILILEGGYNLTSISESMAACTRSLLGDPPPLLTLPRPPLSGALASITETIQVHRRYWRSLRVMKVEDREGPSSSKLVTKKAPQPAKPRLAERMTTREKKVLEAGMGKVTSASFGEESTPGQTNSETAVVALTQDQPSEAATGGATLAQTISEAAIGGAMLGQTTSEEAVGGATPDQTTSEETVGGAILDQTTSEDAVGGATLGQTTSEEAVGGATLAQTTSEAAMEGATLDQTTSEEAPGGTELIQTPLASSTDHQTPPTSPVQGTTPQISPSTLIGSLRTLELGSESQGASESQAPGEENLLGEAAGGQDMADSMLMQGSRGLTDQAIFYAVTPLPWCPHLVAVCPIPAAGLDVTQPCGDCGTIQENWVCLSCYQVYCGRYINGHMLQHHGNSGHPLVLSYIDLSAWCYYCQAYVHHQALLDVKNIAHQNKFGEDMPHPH

[3] = biological target: T3, HDAC1 (Homo sapiens, UniProt Q13547); assay: as above; type: biochemical; details: for HDAC1 dose-response data (relative enzyme activity), Fig. 6 + S. Fig. 10: duplicate columns
T3 construct: HDAC1 (full length, C-terminal His tag, C-terminal FLAG tag, BPS Bioscience, cat. #: 50051); FLAG (C); purchased BPS Bioscience 50051
T3 sequence (Q13547 whole entry): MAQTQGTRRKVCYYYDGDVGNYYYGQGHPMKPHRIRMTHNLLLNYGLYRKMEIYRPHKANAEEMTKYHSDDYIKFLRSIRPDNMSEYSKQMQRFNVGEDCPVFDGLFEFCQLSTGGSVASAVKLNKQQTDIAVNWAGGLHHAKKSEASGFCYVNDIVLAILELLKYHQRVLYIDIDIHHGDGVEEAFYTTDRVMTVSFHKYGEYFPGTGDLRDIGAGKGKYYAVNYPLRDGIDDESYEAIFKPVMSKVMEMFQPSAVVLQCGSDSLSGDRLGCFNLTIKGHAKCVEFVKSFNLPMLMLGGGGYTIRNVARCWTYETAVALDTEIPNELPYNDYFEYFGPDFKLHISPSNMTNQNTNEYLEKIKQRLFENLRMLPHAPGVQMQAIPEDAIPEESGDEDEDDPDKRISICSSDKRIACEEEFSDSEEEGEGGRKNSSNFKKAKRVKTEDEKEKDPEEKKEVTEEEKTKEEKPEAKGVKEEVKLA

[4] = biological target: T4, HDAC2 (Homo sapiens, UniProt Q92769); assay: as above; type: biochemical; details: for HDAC2 dose-response data (relative enzyme activity), Fig. 6 + S. Fig. 10: duplicate columns
T4 construct: HDAC2 (full length, C-terminal His tag, BPS Bioscience, cat. #: 50002); purchased BPS Bioscience 50002
T4 sequence (Q92769 whole entry): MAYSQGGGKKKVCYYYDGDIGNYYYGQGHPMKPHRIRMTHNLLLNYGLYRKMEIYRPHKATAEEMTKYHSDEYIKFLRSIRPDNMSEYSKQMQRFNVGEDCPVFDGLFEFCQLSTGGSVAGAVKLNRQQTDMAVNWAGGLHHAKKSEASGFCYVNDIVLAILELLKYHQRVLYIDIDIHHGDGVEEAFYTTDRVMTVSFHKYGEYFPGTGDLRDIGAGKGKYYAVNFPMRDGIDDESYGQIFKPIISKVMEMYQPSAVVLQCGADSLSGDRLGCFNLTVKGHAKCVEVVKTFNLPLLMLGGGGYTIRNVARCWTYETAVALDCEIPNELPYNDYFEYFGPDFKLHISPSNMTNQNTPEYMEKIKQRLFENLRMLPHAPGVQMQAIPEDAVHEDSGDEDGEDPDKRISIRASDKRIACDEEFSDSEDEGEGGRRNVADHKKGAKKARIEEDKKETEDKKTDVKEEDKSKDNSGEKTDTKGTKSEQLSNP

[5] = biological target: T3, HDAC1; assay: Recombinant HDAC µSPOT microarray binding assay
[6] = biological target: T4, HDAC2; assay: Recombinant HDAC µSPOT microarray binding assay
[7] = biological target: T5, HDAC8 (Homo sapiens, UniProt Q9BY41); assay: Recombinant HDAC µSPOT microarray binding assay;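 also: peptide µSPOT slides incubated with varying HDAC enzyme concentrations, imaged signal intensity fitted by four-parameter variable-slope regression, EC50 is enzyme concentration giving half-maximal binding, pH 7.4 HEPES buffer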
T5 construct: HDAC8 (full length, C-terminal His tag, BPS Bioscience, cat. #: 50008); purchased BPS Bioscience 50008
T5 sequence (Q9BY41 1-377): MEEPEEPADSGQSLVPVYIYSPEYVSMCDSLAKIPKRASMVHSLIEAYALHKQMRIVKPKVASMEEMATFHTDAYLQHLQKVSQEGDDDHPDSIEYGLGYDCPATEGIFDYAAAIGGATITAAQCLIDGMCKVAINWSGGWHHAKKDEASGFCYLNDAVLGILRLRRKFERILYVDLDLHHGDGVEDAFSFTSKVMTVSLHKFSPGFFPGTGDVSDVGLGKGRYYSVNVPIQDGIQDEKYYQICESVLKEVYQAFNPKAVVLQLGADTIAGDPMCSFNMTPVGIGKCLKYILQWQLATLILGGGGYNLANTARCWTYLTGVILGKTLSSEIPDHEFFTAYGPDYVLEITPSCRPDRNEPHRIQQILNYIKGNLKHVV

[8] = biological target: T6, HDAC4 (Homo sapiens, UniProt P56524); assay: HDAC inhibition assay (fluorogenic, Ac-Leu-Gly-Lys(Tfa)-AMC); type: biochemical; details: 2 internal replicates
T6 construct: purchased BPS Bioscience 50004
T6 sequence (P56524 627-1084): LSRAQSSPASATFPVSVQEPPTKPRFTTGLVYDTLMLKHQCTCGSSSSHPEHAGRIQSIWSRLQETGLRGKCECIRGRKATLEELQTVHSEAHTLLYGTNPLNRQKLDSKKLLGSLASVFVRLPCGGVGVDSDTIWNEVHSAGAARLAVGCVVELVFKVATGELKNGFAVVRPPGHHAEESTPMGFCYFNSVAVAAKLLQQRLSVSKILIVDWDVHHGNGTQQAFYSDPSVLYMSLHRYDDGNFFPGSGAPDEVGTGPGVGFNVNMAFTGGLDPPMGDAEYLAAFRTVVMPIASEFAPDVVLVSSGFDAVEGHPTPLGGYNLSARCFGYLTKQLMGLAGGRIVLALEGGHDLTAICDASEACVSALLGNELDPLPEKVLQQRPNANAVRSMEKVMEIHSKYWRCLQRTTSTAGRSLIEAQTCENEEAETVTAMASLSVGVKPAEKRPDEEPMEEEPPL

[9] = biological target: T1, HDAC3/NCoR2; assay: Recombinant HDAC µSPOT microarray binding assay
[10] = log[inhibitor(M)] -10,5850266520292*, whole line marked with asterisks

## CC(=O)N[C@@H](C)C(=O)N1CCC[C@H]1C(=O)N[C@@H](C)C(=O)N1CCC[C@H]1C(=O)N[C@@H](CCCCN)C(=O)N[C@@H](CCCCCC(=O)NO)C(=O)NCC(=O)N[C@@H](CO)C(=O)N[C@@H](CCCCN)C(=O)N[C@@H](CCCCN)C(=O)N[C@@H](C)C(=O)N[C@H](C(=O)N[C@H](C(=O)N[C@@H](CCCCN)C(=O)N[C@@H](C)C(=O)N[C@@H](CCC(N)=O)C(=O)N[C@@H](Cc1c[nH]c2ccccc12)C(N)=O)[C@@H](C)O)C(C)C [10a] (Ac-APAPK[Asu](NHOH)GSKKAVTKAQW-NH2)
[1]
  Ki: 51.2 ± 0.9 nM
[1]; log[inhibitor(M)] -4.30103
  HDAC3 dose-response data (relative enzyme activity), Fig. 6 + S. Fig. 10: 2.766 and 1.97
[1]; log[inhibitor(M)] -5
  HDAC3 dose-response data (relative enzyme activity), Fig. 6 + S. Fig. 10: 10.2945 and 7.913
[1]; log[inhibitor(M)] -5.69897
  HDAC3 dose-response data (relative enzyme activity), Fig. 6 + S. Fig. 10: 26.7937 and 20.8193
[1]; log[inhibitor(M)] -6.39794
  HDAC3 dose-response data (relative enzyme activity), Fig. 6 + S. Fig. 10: 46.8605 and 38.5396
[1]; log[inhibitor(M)] -7.09691
  HDAC3 dose-response data (relative enzyme activity), Fig. 6 + S. Fig. 10: 73.2021 and 63.7098
[1]; log[inhibitor(M)] -7.79588
  HDAC3 dose-response data (relative enzyme activity), Fig. 6 + S. Fig. 10: 98.3444 and 77.95
[1]; log[inhibitor(M)] -8.49485
  HDAC3 dose-response data (relative enzyme activity), Fig. 6 + S. Fig. 10: 104.594 and 95.6609
[1]; log[inhibitor(M)] -9.19382
  HDAC3 dose-response data (relative enzyme activity), Fig. 6 + S. Fig. 10: 108.819 and 98.0987
[1]; log[inhibitor(M)] -9.89279
  HDAC3 dose-response data (relative enzyme activity), Fig. 6 + S. Fig. 10: 107.136 and 105.407
[1]; [10]
  HDAC3 dose-response data (relative enzyme activity), Fig. 6 + S. Fig. 10: 106,9896* and 85,1199*
[2]; log[inhibitor(M)] -4.30103
  residual enzymatic activity relative to control wells: 1.4 and 0.93
[2]; log[inhibitor(M)] -5
  residual enzymatic activity relative to control wells: 3.09 and 2.23
[2]; log[inhibitor(M)] -5.69897
  residual enzymatic activity relative to control wells: 13.76 and 8.98
[2]; log[inhibitor(M)] -6.39794
  residual enzymatic activity relative to control wells: 36.89 and 30.05
[2]; log[inhibitor(M)] -7.09691
  residual enzymatic activity relative to control wells: 68.83 and 58.89
[2]; log[inhibitor(M)] -7.79588
  residual enzymatic activity relative to control wells: 90.1 and 83.16
[2]; log[inhibitor(M)] -8.49485
  residual enzymatic activity relative to control wells: 98.1 and 88.82
[2]; log[inhibitor(M)] -9.19382
  residual enzymatic activity relative to control wells: 100.25 and 95.78
[2]; log[inhibitor(M)] -9.89279
  residual enzymatic activity relative to control wells: 102.47 and 98.2
[2]; log[inhibitor(M)] -10.585
  residual enzymatic activity relative to control wells: 99,94* and 98,05*
[3]
  Ki: 111 ± 2 nM
[3]; log[inhibitor(M)] -4.30103
  HDAC1 dose-response data (relative enzyme activity), Fig. 6 + S. Fig. 10: 5.334 and 4.212
[3]; log[inhibitor(M)] -5.69897
  HDAC1 dose-response data (relative enzyme activity), Fig. 6 + S. Fig. 10: 29.499 and 30.3493
[3]; log[inhibitor(M)] -6.39794
  HDAC1 dose-response data (relative enzyme activity), Fig. 6 + S. Fig. 10: 63.3422 and 57.5642
[3]; log[inhibitor(M)] -7.09691
  HDAC1 dose-response data (relative enzyme activity), Fig. 6 + S. Fig. 10: 92.4396 and 86.4688
[3]; log[inhibitor(M)] -7.79588
  HDAC1 dose-response data (relative enzyme activity), Fig. 6 + S. Fig. 10: 116.265 and 84.5085
[3]; log[inhibitor(M)] -8.49485
  HDAC1 dose-response data (relative enzyme activity), Fig. 6 + S. Fig. 10: 113.205 and 105.123
[3]; log[inhibitor(M)] -9.19382
  HDAC1 dose-response data (relative enzyme activity), Fig. 6 + S. Fig. 10: 116.621 and 108.226
[3]; log[inhibitor(M)] -9.89279
  HDAC1 dose-response data (relative enzyme activity), Fig. 6 + S. Fig. 10: 112.611 and 105.771
[3]; [10]
  HDAC1 dose-response data (relative enzyme activity), Fig. 6 + S. Fig. 10: 102,7345* and 100,1809*
[4]; log[inhibitor(M)] -5
  HDAC2 dose-response data (relative enzyme activity), Fig. 6 + S. Fig. 10: 21.842 and 17.4503
[4]; log[inhibitor(M)] -5.69897
  HDAC2 dose-response data (relative enzyme activity), Fig. 6 + S. Fig. 10: 44.183 and 59.677
[4]; log[inhibitor(M)] -7.79588
  HDAC2 dose-response data (relative enzyme activity), Fig. 6 + S. Fig. 10: 120.227 and 109.311
[4]; [10]
  HDAC2 dose-response data (relative enzyme activity), Fig. 6 + S. Fig. 10: 109,81* and 112,306*
[4]; resynthesized peptide in solution, Cheng-Prusoff, n = 2
  Ki: 239 ± 4 nM
[5]
  EC50: 8.71 nM
[6]
  EC50: > 25.1 nM
[7]
  EC50: > 25.1 nM
[8]; inhibitor 5 µM
  residual enzymatic activity relative to control wells: 95.93
[8]; inhibitor 5 µM, read-out: residual enzymatic activity relative to control wells
  remaining activity at 5 µM: 100%
[8]; inhibitor 50 µM
  residual enzymatic activity relative to control wells: 77.53
[8]; inhibitor 50 µM, read-out: residual enzymatic activity relative to control wells
  remaining activity at 50 µM: 80.4%
[9]
  EC50: 3.09 nM
